Measurements as given in EP4616867A1, “COMBINATION OF ENDOTHELIN RECEPTOR ANTAGONIST AND GLUCOCORTICOID FOR TREATING IGA NEPHROPATHY” (Sanreno Therapeutics (Shanghai) Limited, priority 2022, dated 2024).

Tested on: IgA nephropathy model mice
Experiment: Efficacy of atrasentan, methylprednisolone and combinations in IgA nephropathy model mice (CFA-stimulated humanized IGHA1 mice); blood hIgA1, IgG, IgM
Assay type: in vivo
Conditions: IgAN mice; for IgG, Difference between pre-treatment and post-treatment value (post-treatment minus pre-treatment), Mean (SD) / IgG, Difference between pre-treatment and post-treatment value (post-treatment minus pre-treatment), Median (Q1 - Q3) / IgM, Difference between pre-treatment and post-treatment value (post-treatment minus pre-treatment), Mean (SD) / IgM, Difference between pre-treatment and post-treatment value (post-treatment minus pre-treatment), Median (Q1 - Q3) / hIgA1, Difference between pre-treatment and post-treatment value (post-treatment minus pre-treatment), Mean (SD) / hIgA1, Difference between pre-treatment and post-treatment value (post-treatment minus pre-treatment), Median (Q1 - Q3): 30 days gavage; for IgG, After treatment, Mean (SD) / IgG, After treatment, Median (Q1 - Q3) / IgM, After treatment, Mean (SD) / IgM, After treatment, Median (Q1 -Q3) / hIgA1, After treatment, Mean (SD) / hIgA1, After treatment, Median (Q1 - Q3): after 30 days gavage, atrasentan 15 mg/kg/day, methylprednisolone 5 mg/kg/day, dapagliflozin 1 mg/kg/day; for IgG, Before treatment, Mean (SD) / IgG, Before treatment, Median (Q1 - Q3) / IgM, Before treatment, Mean (SD) / IgM, Before treatment, Median (Q1 - Q3) / hIgA1, Before treatment, Mean (SD) / hIgA1, Before treatment, Median (Q1 - Q3): baseline before dosing
Description: The present invention will be further described below through examples, but the examples are not meant to limit the scope of the present invention in any way. For the measurement methods of various parameters in the examples, reference should be made to Wan F, Wang H, Wang M, Lü J, Zhao M, Zhang H. Sustained release of Lactobacillus casei cell wall extract can induce a continuous and stable IgA deposition model. […] Chimeric Fusion between Clostridium Ramosum IgA Protease and IgG Fc Provides Long-Lasting Clearance of IgA Deposits in Mouse Models of IgA Nephropathy. […] The above-mentioned documents are incorporated into this application in their entirety. […] Complete Freunds adjuvant (CFA) and phosphate buffer solution (PBS) were mixed thoroughly and emulsified at a ratio of 1:1 to obtain a CFA injection that was intraperitoneally injected into 8-week-old humanized IGHA1 mice constructed in step 1. Four times the mouse body weight (4w μl) was injected every 2 weeks, administering a total of 6 injections over a time period of about 2.5 months. • 2. In this experiment, the 8-week-old humanized IgA1 mice underwent an induction period of 2 to 5 months after the final injection of CFA. Table 1 […] Each group received intraperitoneal injections of CFA injection to create a model. Upon model completion, atrasentan, methylprednisolone and/or dapagliflozin were administered as outlined below. The control group was administered an equal amount of solvent (an aqueous solution of 0.5% (w/v) methylcellulose and 0.5% (v/v) Tween 80) by gavage for 30 days. Dosing method: atrasentan (15 mg/kg/day), methylprednisolone (5 mg/kg/day), dapagliflozin (1 mg/kg/day) were administered by gavage every morning for 30 days. When co-administered, the required medicines were mixed together in the appropriate proportion (the dose of each medicine was calculated according to mouse body weight) before administration by gavage. […] Prior to dosing, once every 2 weeks during the dosing period, and on day 30 of dosing, urine creatinine, urine protein level, and albumin to creatinine ratio (ACR) were measured, and the mice checked for the presence of haematuria. Prior to dosing and on day 30 of dosing, renal tissue pathology was scored according to the Oxford classification system, IgA and C3 deposition in renal tissue was measured by immunofluorescence assay, and mice in each group were examined for cardiac pathology.

SMILES	IgG, Difference between pre-treatment and post-treatment value (post-treatment minus pre-treatment), Mean (SD)	IgG, Difference between pre-treatment and post-treatment value (post-treatment minus pre-treatment), Median (Q1 - Q3)	IgM, Difference between pre-treatment and post-treatment value (post-treatment minus pre-treatment), Mean (SD)	IgM, Difference between pre-treatment and post-treatment value (post-treatment minus pre-treatment), Median (Q1 - Q3)	hIgA1, Difference between pre-treatment and post-treatment value (post-treatment minus pre-treatment), Mean (SD)	hIgA1, Difference between pre-treatment and post-treatment value (post-treatment minus pre-treatment), Median (Q1 - Q3)	IgG, After treatment, Mean (SD)	IgG, After treatment, Median (Q1 - Q3)	IgM, After treatment, Mean (SD)	IgM, After treatment, Median (Q1 -Q3)	hIgA1, After treatment, Mean (SD)	hIgA1, After treatment, Median (Q1 - Q3)	IgG, Before treatment, Mean (SD)	IgG, Before treatment, Median (Q1 - Q3)	IgM, Before treatment, Mean (SD)	IgM, Before treatment, Median (Q1 - Q3)	hIgA1, Before treatment, Mean (SD)	hIgA1, Before treatment, Median (Q1 - Q3)
CCCCN(CCCC)C(=O)CN1C[C@H](c2ccc3c(c2)OCO3)[C@@H](C(=O)O)[C@@H]1c1ccc(OC)cc1 [Atrasentan (A), atrasentan]	1.69(0.35)	1.58(1.11 - 2.23)	0.54(0.23)	0.38(0.07 - 0.69)	5.95 (1.50)	4.96 (3.03 - 8.99)	5.04(0.10)	5.06(4.74 - 5.25)	2.08(0.45)	1.72(1.28 - 2.26)	15.99( 3.40)	12.99 (7.93 - 23.80)	3.35(0.36)	3.32(2.90 - 4.14)	1.55(0.25)	1.31(1.02 - 1.97)	10.04 (2.46)	7.88(4. 24 - 16.39)
C[C@H]1C[C@@H]2[C@H]([C@@H](O)C[C@@]3(C)[C@H]2CC[C@]3(O)C(=O)CO)[C@@]2(C)C=CC(=O)C=C12 [Methylprednisolone (MP), methylprednisolone]	-0.10(0.20)	-0.09(-0.28 - 0.39)	-0.04(0.08)	-0.05(-0.12 - 0.13)	-0.03( 0.70)	-0.11 (-1.97 - 2.12)	4.75(0.81)	3.56(3.22 - 7.06)	1.51(0.33)	1.08(0.80 - 2.34)	6.63(0 .79)	6.23( 4.78 - 8.97)	4.85(0.94)	3.75(3.04 - 7.83)	1.55(0.28)	1.31(0.90 - 2.22)	6.66( 0.37)	6.69(6. 12 - 7.53)
